From PubChem BioAssay (NCI)
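Tested at 5 concentrations; 48 h exposure; 96-well plates; endpoints linearly interpolated, else capped at highest concentration. GI50 is the concentration that inhibits growth by half. TGI: total growth inhibition.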

Experiments:
Assay in all cases: NCI anticancer screen, dose series, 48 h
[1] = tested on: 786-0 renal
[2] = tested on: A498 renal
[3] = tested on: A549 NSCLC
[4] = tested on: ACHN renal
[5] = tested on: BT-549 breast
[6] = tested on: CAKI-1 renal
[7] = tested on: CCRF-CEM leukemia
[8] = tested on: COLO 205 colon
[9] = tested on: DU-145 prostate
[10] = tested on: EKVX NSCLC
[11] = tested on: HCC-2998 colon
[12] = tested on: HCT-116 colon
[13] = tested on: HCT-15 colon
[14] = tested on: HL-60(TB) leukemia
[15] = tested on: HOP-62 NSCLC
[16] = tested on: HOP-92 NSCLC
[17] = tested on: HS 578T breast
[18] = tested on: HT29 colon
[19] = tested on: IGROV1 ovarian
[20] = tested on: K-562 leukemia
[21] = tested on: KM12 colon
[22] = tested on: LOX IMVI melanoma
[23] = tested on: M14 melanoma
[24] = tested on: MALME-3M melanoma
[25] = tested on: MCF7 breast
[26] = tested on: MDA-MB-231 breast
[27] = tested on: MDA-MB-435
[28] = tested on: MOLT-4 leukemia
[29] = tested on: NCI-H226 lung
[30] = tested on: NCI-H23 lung
[31] = tested on: NCI-H460 lung
[32] = tested on: NCI-H522 lung
[33] = tested on: NCI/ADR-RES ovarian
[34] = tested on: OVCAR-3 ovarian
[35] = tested on: OVCAR-4 ovarian
[36] = tested on: OVCAR-5 ovarian
[37] = tested on: OVCAR-8 ovarian
[38] = tested on: PC-3 prostate
[39] = tested on: RPMI-8226 leukemia
[40] = tested on: RXF 393 renal
[41] = tested on: SF-268 CNS
[42] = tested on: SF-295 CNS
[43] = tested on: SF-539 CNS
[44] = tested on: SK-MEL-2 melanoma
[45] = tested on: SK-MEL-28 melanoma
[46] = tested on: SK-MEL-5 melanoma
[47] = tested on: SK-OV-3 ovarian
[48] = tested on: SN12C renal
[49] = tested on: SNB-19 CNS
[50] = tested on: SNB-75 CNS
[51] = tested on: SR leukemia
[52] = tested on: SW-620 colon
[53] = tested on: T-47D breast
[54] = tested on: TK-10 renal
[55] = tested on: U251 CNS
[56] = tested on: UACC-257 melanoma
[57] = tested on: UACC-62 melanoma
[58] = tested on: UO-31 renal

## O=[As]c1ccc(C(=O)c2ccc(Oc3ccccc3)cc2)cc1 (stereo not given)
[1]
  GI50: 57.6 nM
  TGI: 166 nM
[2]
  GI50: 141 nM
  TGI: 295 nM
[3]
  GI50: 46.5 nM
  TGI: 172 nM
[4]
  GI50: 35.8 nM
  TGI: 114 nM
[5]
  GI50: 135 nM
  TGI: 278 nM
[6]
  GI50: 39.2 nM
  TGI: 120 nM
[7]
  GI50: 19.1 nM
  TGI: 155 nM
[8]
  GI50: 49.4 nM
  TGI: 169 nM
[9]
  GI50: 34.8 nM
  TGI: 123 nM
[10]
  GI50: 68.8 nM
  TGI: 205 nM
[11]
  GI50: 72.7 nM
  TGI: 213 nM
[12]
  GI50: 41.5 nM
  TGI: 152 nM
[13]
  GI50: 36.2 nM
  TGI: 150 nM
[14]
  GI50: 119 nM
  TGI: 463 nM
[15]
  GI50: 35.6 nM
  TGI: 105 nM
[16]
  GI50: 159 nM
  TGI: 361 nM
[17]
  GI50: 129 nM
[18]
  GI50: 37.9 nM
  TGI: 154 nM
[19]
  GI50: 44 nM
  TGI: 219 nM
[20]
  GI50: 18.8 nM
  TGI: 117 nM
[21]
  GI50: 53.2 nM
  TGI: 177 nM
[22]
  GI50: 24.6 nM
  TGI: 79.6 nM
[23]
  GI50: 69.5 nM
  TGI: 202 nM
[24]
  GI50: 68 nM
  TGI: 271 nM
[25]
  GI50: 18.1 nM
  TGI: 90.3 nM
[26]
  GI50: 54.7 nM
  TGI: 192 nM
[27]
  GI50: 39.6 nM
  TGI: 176 nM
[28]
  GI50: 33.3 nM
  TGI: 190 nM
[29]
  GI50: 106 nM
  TGI: 226 nM
[30]
  GI50: 75.1 nM
  TGI: 242 nM
[31]
  GI50: 43.9 nM
  TGI: 183 nM
[32]
  GI50: 21.9 nM
  TGI: 86.5 nM
[33]
  GI50: 37.8 nM
  TGI: 143 nM
[34]
  GI50: 24.3 nM
  TGI: 60.8 nM
[35]
  GI50: 46.9 nM
  TGI: 171 nM
[36]
  GI50: 129 nM
  TGI: 264 nM
[37]
  GI50: 38.9 nM
  TGI: 146 nM
[38]
  GI50: 34.9 nM
  TGI: 142 nM
[39]
  GI50: 26.7 nM
  TGI: 105 nM
[40]
  GI50: 40.4 nM
  TGI: 143 nM
[41]
  GI50: 34.4 nM
  TGI: 129 nM
[42]
  GI50: 150 nM
  TGI: 327 nM
[43]
  GI50: 66 nM
  TGI: 218 nM
[44]
  GI50: 118 nM
  TGI: 287 nM
[45]
  GI50: 41.6 nM
  TGI: 153 nM
[46]
  GI50: 53.9 nM
  TGI: 174 nM
[47]
  GI50: 120 nM
  TGI: 249 nM
[48]
  GI50: 40.7 nM
  TGI: 148 nM
[49]
  GI50: 65.1 nM
  TGI: 187 nM
[50]
  GI50: 36.6 nM
  TGI: 150 nM
[51]
  GI50: < 16.8 nM
  TGI: 73.6 nM
[52]
  GI50: 24.8 nM
  TGI: 111 nM
[53]
  GI50: 31.6 nM
  TGI: 156 nM
[54]
  GI50: 63 nM
  TGI: 190 nM
[55]
  GI50: 18.1 nM
  TGI: 58.6 nM
[56]
  GI50: 43.1 nM
  TGI: 171 nM
[57]
  GI50: 59 nM
  TGI: 185 nM
[58]
  GI50: 69.5 nM
  TGI: 208 nM
